{
  "source": "patent US11919886B2",
  "about": "“4,9-dioxo-4,9-dihydronaphtho[2,3-B]furan-3-carboxamide derivatives and uses thereof for treating proliferative diseases and infectious diseases” (Academia Sinica, priority 2016, dated 2024)",
  "key": {"[1]": {"test_system": "Staphylococcus epidermidis", "assay": "MIC, broth micro dilution method", "type": "cell-based"}, "[2]": {"test_system": "CL1-0 (human lung adenocarcinoma cells, EGFR wild type and resistant to gefitinib)", "assay": "SRB cytotoxicity assay, CL1-0", "settings": "CL1-0, 72 h"}, "[3]": {"test_system": "H1975 cells", "assay": "Replication fork number by MCM2 immunofluorescence staining", "type": "cell-based, human", "settings": "H1975, 140 nM, 48 h", "protocol": "In addition, to evaluate the effects of compound 1 on the progression of DNA replication, the number of replication forks was determined by MCM2 immunofluorescence staining in H1975 cells released from the G1 phase with DMSO and with compound 1 treatment. Exemplary results are shown in Panel (B) of FIG. 2. To evaluate the effects on DNA replication of compound 1, H1975 cells were arrested in G1 by contact inhibition. After 3 days, the cells were re-plated at a low density on cover slips and allowed to progress through the cell cycle. The cells were pulsed with 140 nM compound for 48 h and were fixed for 10 minutes at room temperature in 3.7% cold paraformaldehyde in PBS (pH 7.2), washed 3 times with PBS, and permeabilized for 10 minutes at room temperature in PBS containing 0.1% Triton X-100. The cells were blocked with PBS containing 3% bovine serum albumin and stained overnight at 4° C. with primary antibodies against MCM2, followed by incubation for 1 hour at 37° C. with Alexa Fluor 488 Goat Anti-Mouse IgG (Life Technologies Corporation), respectively. The cells were mounted onto microscope slides with ProLong Gold Antifade Reagent with DAPI (4′,6-Diamidino-2-phenylindole dihydrochloride) (Life Technologies Corporation) and then examined and photographed using Zeiss LSM 700 Confocal (Zeiss, Urbana, IL). […] (Panel (B) of FIG. 2)"}, "[4]": {"test_system": "Escherichia coli", "assay": "MIC, broth micro dilution method", "type": "cell-based"}, "[5]": {"test_system": "CL1-5 (human lung adenocarcinoma cells, EGFR wild type and resistant to gefitinib)", "assay": "SRB cytotoxicity assay, CL1-5", "settings": "CL1-5, 72 h"}, "[6]": {"test_system": "Enterococcus faecium", "assay": "MIC, broth micro dilution method", "type": "cell-based"}, "[7]": {"biological_target": "T1, MCM2 (Homo sapiens, UniProt P49736)", "T1 construct": "The MCM2 proteins were pulled down by incubating the H1975 lysate with compound 1-conjugated magnetic beads; endogenous in cells; host or cells: H1975", "T1 sequence (P49736 whole entry)": "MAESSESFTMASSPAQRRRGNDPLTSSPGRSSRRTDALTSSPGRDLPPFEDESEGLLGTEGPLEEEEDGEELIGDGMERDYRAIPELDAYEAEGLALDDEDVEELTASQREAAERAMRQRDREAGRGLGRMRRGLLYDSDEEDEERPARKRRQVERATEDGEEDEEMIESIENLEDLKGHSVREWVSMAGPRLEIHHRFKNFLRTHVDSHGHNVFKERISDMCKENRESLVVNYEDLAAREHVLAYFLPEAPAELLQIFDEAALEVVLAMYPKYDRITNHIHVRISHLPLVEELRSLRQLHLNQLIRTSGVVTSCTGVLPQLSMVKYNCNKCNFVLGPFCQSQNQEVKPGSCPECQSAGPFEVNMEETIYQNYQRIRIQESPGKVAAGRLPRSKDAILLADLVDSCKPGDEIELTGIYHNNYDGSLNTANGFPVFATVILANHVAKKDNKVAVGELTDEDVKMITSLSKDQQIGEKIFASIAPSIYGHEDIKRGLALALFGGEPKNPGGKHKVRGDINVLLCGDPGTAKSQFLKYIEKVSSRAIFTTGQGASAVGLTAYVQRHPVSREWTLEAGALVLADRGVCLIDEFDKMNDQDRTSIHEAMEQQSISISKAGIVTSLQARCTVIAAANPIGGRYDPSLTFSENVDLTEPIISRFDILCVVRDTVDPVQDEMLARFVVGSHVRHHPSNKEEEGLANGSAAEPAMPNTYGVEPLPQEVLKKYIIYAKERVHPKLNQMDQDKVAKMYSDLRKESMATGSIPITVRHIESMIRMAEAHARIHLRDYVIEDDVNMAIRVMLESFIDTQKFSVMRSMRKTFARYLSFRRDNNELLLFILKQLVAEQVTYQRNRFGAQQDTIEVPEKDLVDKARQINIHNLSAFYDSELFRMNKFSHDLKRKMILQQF", "assay": "Chromatin-bound MCM2 after double thymidine block (immunoblotting)", "type": "cell-based", "settings": "H1975, 4.5 hour, 6 hour and 9 hour treatment", "protocol": "To explore whether Compound 1-induced protein degradation also interfered with the DNA binding ability of MCM2, HI 975 cells were synchronized using a double thymidine block followed by release with DMSO or compound 1 treatment for 3 to 9 hours. Exemplary results are shown in Panel (D) of FIG. 3. Then, the cells were harvested to obtain the chromatin-bound fraction, and MCM2 was detected by immunoblotting."}, "[8]": {"test_system": "H1975 cells", "assay": "Cell cycle analysis by propidium iodide flow cytometry", "settings": "72 h"}, "[9]": {"test_system": "MCM complex (MCM2-MCM7)", "assay": "Immunoblotting of MCM complex protein expression in H1975 cell lysates", "type": "cell-based, human", "protocol": "To evaluate the effects of Compound 1 on modulating the expression of different MCM protein components, immunoblotting of DMSO or compound 1-treated (at 140 nM) H1975 cell lysates was performed. Exemplary results are shown in Panels (A)-(C) of FIG. 3. H1975 cell were treated with DMSO and compound 1 (140 nM). Compound 1-treated H1975 cells were harvested at 24 hours, 48 hours, and 72 hours, and the protein expression levels of MCM complex were analyzed by immunoblotting. […] (Panel (A) of FIG. 3.).\nTo evaluate the effects of Compound 1 on triggering MCM2, MCM6, and MCM7 degradation through transcriptional or post-translational regulation, compound 1-treated H1975 cells were harvested at 48 hours with or without 10 μM MG132 treatment for 12 hours; and the protein expression levels of MCM2/6/7 were examined by immunoblotting. […] It was observed that MG132 proteasome inhibitor may reverse the compound 1 effects on MCM2/6/7 protein expression levels."}},
  "note": "Where two headings read alike, the source gives them in different places.",
  "data": [
    {"smiles": "Cc1oc2c(c1C(=O)NCCCn1ccnc1)C(=O)c1ccccc1C2=O", "note": "[Compound 1, N-(3-(1H-Imidazol-1-yl)propyl)-2-methyl-4,9-dioxo-4,9-dihydronaphtho [2,3-b]furan-3-carboxamide]", "values": [
      {"measurement": "MIC", "setting": "[1]; read-out: MIC (μg/ml) 100%, strain ATCC12228, methicillin-susceptible", "value": 2, "unit": "µg/mL"},
      {"measurement": "MIC", "setting": "[1]; read-out: MIC (μg/ml) 100%, strain ATCC35984, methicillin-resistant", "value": 1, "unit": "µg/mL"},
      {"measurement": "MIC", "setting": "[1]; strain ATCC12228, methicillin-susceptible, read-out: MIC (μg/ml) 50%", "value": 0.5, "unit": "µg/mL"},
      {"measurement": "MIC", "setting": "[1]; strain ATCC35984, methicillin-resistant, read-out: MIC (μg/ml) 50%", "value": 0.25, "unit": "µg/mL"},
      {"measurement": "IC50", "setting": "[2]", "value": 123, "unit": "nM"},
      {"measurement": "number of the replication fork", "setting": "[3]", "value": "176.8±8.721"},
      {"measurement": "MIC", "setting": "[4]; read-out: MIC (μg/ml) 100%, strain ATCC33625, gram negative", "value": "> 32", "unit": "µg/mL"},
      {"measurement": "MIC", "setting": "[4]; strain ATCC33625, gram negative, read-out: MIC (μg/ml) 50%", "value": "> 32", "unit": "µg/mL"},
      {"measurement": "IC50", "setting": "[5]", "value": 280, "unit": "nM"},
      {"measurement": "MIC", "setting": "[6]; read-out: MIC (μg/ml) 100%, strain ATCC19434", "value": 16, "unit": "µg/mL"},
      {"measurement": "MIC", "setting": "[6]; strain ATCC19434, read-out: MIC (μg/ml) 50%", "value": 2, "unit": "µg/mL"},
      {"measurement": "chromatin-bound form of MCM2 vs DMSO control", "setting": "[7]", "value": "significantly reduced"},
      {"measurement": "Phase(%) G1", "setting": "[8]; H1975, 35 nM", "value": 70, "unit": "%"},
      {"measurement": "Phase(%) G2/M", "setting": "[8]; H1975, 35 nM", "value": 23, "unit": "%"},
      {"measurement": "Phase(%) S", "setting": "[8]; H1975, 35 nM", "value": 4, "unit": "%"},
      {"measurement": "Phase(%) subG1", "setting": "[8]; H1975, 35 nM", "value": 1, "unit": "%"},
      {"measurement": "Phase(%) G1", "setting": "[8]; H1975, 70 nM", "value": 58, "unit": "%"},
      {"measurement": "Phase(%) G2/M", "setting": "[8]; H1975, 70 nM", "value": 31, "unit": "%"},
      {"measurement": "Phase(%) S", "setting": "[8]; H1975, 70 nM", "value": 7, "unit": "%"},
      {"measurement": "Phase(%) subG1", "setting": "[8]; H1975, 70 nM", "value": 1, "unit": "%"},
      {"measurement": "Phase(%) G1", "setting": "[8]; H1975, 140 nM", "value": 39, "unit": "%"},
      {"measurement": "Phase(%) G2/M", "setting": "[8]; H1975, 140 nM", "value": 38, "unit": "%"},
      {"measurement": "Phase(%) S", "setting": "[8]; H1975, 140 nM", "value": 18, "unit": "%"},
      {"measurement": "Phase(%) subG1", "setting": "[8]; H1975, 140 nM", "value": 4, "unit": "%"},
      {"measurement": "expression of MCM3, MCM4, or MCM5", "setting": "[9]; H1975, 140 nM, 24, 48, 72 hours", "value": "lower only at 72 hours"},
      {"measurement": "expression levels of MCM2, MCM6, and MCM7", "setting": "[9]; H1975, 140 nM, 24 hour and 72 hour", "value": "significantly decreased"},
      {"measurement": "MCM protein levels and messenger RNA levels", "setting": "[9]; H1975, 24 hours", "value": "substantial decrease in MCM protein levels without a change in their messenger RNA levels"}
    ]}
  ]
}
